Test results taken from US6958318B2, “Recombinant bacterial cells for delivery of PNP to tumor cells” (The UAB Research Foundation, priority 1993, dated 2005).
Values joined by “and” are separate entries in the source; they are usually repeats but may differ in a detail not shown here. Equal entries are not always repeated. Where two headings read alike, the source gives them in different places. Marks after values point to notes of the source that are not given here.

Legend:
[1] = target: T1, E. coli PNP (Escherichia coli, UniProt P0ABP8); assay type: biochemical
T1 sequence (P0ABP8 2-239): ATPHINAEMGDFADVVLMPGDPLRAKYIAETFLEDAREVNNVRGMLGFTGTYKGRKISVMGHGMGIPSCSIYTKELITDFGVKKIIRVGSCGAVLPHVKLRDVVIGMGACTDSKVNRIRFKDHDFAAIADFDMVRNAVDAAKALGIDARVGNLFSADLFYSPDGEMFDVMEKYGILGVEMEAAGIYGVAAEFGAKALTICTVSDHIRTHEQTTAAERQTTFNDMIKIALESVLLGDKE

[2] = literature; cited from earlier work
[3] = system: wild type murine breast carcinoma cells (16/C cell line); assay: Wild-type 16/C tumors in nude mice; assay type: in vivo; details: FIG. 6
Method: For studies conducted with nu/nu mice, cells obtained from stable cultures of transduced cell lines were injected subcutaneously into the right or left flank of the mice. Mice with visible tumor growth were used for further studies. For the administration of purine prodrug, mice were administered MeP-dR or F-araAMP by IP injection.
Four to five nude (nu/nu) mice per group were inoculated with wild type murine breast carcinoma cells (16/C cell line), or PNP transduced 16/C cells. Mice with established tumors (approximately 100 mm^3) were treated with MeP-dR (100 mg/kg/d IP×3 d) or F-araAMP (100 mg/kg/IP 3 id×3 d).

[4] = system: Mel-1 cells; assay: Wild type melanoma cell viability; assay type: cell-based, human; details: concentrations as high as 50 μg/ml, five days
[5] = system: wild-type 16/C tumors; assay: Wild-type 16/C tumors in B6C3F1 mice; assay type: in vivo
Method: (§1) Transduced 16/C cells were implanted in mice by subcutaneous injection of approximately 10^6 cells harvested from the cultures of stably transduced 16/C cells described above. The mice were examined visibly for tumor growth and those with developing tumors were maintained. To prepare mice for use in the in vivo experiments, the tumors were removed from mice with significant tumor growth and cut into 30-60 mg pieces. One 30-60 mg piece of the tumor was subcutaneously implanted into the subaxillary region of each female B6C3F1 mouse. The tumors were allowed to develop and mice with tumors of 100 mm^3 were used.
Six mice (B6C3F1) per group with established wild type 16/C tumors were treated with an aqueous control solution, MeP-dR (100 mg/kg IP qd×3d) or 2-fluoro-arabinofuranosyladenine monophosphate (F-araAMP) (100 mg/kg IP, […]). The wild type tumors grew rapidly in the presence or absence of either of the prodrugs. […] (Table III, Wild-type 16/C treatment).

[6] = system: PNP transduced tumors; assay type: in vivo; details: 67 mg/kg ip, qd×3 d
[7] = system: 16/C-PNP tumors; assay: E. coli PNP-transduced 16/C tumors in B6C3F1 mice; assay type: in vivo
Method: as §1
Six mice per group with established PNP-transduced 16/C tumors were treated with aqueous control solution, MeP-dR or F-ara AMP, as above. […] (Table III, 16/C-PNP treatment.)

[8] = system: D54-PNP tumors; assay: E. coli PNP-transduced D54 glioma tumors in nude mice; assay type: in vivo
Method: Female athymic nude mice (nu/nu) were implanted sc with 2×10^7 cells of either D54 parental tumor cells (D54-wt) or D54 tumor cells that had been transduced with the E. coli PNP (D54-PNP). After the tumors had grown to approximately 150 mg, they were treated ip with either vehicle or 67 mg/kg of MeP-dR (IP) once a day for 3 days (days 6, 7 and 8 after implantation). The tumor sizes were measured twice a week after treatment.
A confirmation experiment was set up exactly as described above, except that animals were treated with two doses of MeP-dR (45 and 67 mg/kg) (FIGS. 10 and 11). The results of this experiment were similar (Table V). There were 8 of 10 complete regressions in mice bearing the D54-PNP tumors that were treated with 67 mg/kg of MeP-dR. In 4 mice the tumors subsequently returned and grew. There were still 4 of 10 tumor-free survivors 60 days after the treatment had stopped. […] There were 2 of 10 complete regressions and 3 partial responses. […] The delay in the time required to double twice due to treatment with MeP-dR was 5 to 6 days in the non-transduced tumors and greater than 24 days in transduced tumors. In this experiment, the growth rate of the D54-PNP tumors was considerably slower than it was in the first experiment. There was no change in the growth rate of the D54-wt tumors. The reason for the slow growth rate of the D54-PNP tumors in this experiment is not known. […] (In other words, if a tumor was too small to measure, it was not included in the average size). This means that the overall tumor regressions in the D54 PNP group are actually much more pronounced than they appear in FIGS. 8-11.

[9] = target: T2, human PNP (Homo sapiens, UniProt P00491); assay: Cleavage of purine analog nucleosides by human PNP (HPLC); assay type: biochemical
T2 sequence (P00491 1-289): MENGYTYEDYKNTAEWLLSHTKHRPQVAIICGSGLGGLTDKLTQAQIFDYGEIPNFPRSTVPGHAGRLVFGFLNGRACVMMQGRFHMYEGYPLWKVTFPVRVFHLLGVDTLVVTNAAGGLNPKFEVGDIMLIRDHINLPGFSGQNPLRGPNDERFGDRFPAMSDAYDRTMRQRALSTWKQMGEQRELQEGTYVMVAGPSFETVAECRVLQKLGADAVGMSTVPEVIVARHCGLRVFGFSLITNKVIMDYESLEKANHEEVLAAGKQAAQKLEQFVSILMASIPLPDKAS

[10] = target: T1, E. coli PNP; assay type: biochemical; remark: listed apart in the source
[11] = IP for three days, MeP-dR 100, F-araAMP 500 mg/kg/day

## Cc1ncnc2c1ncn2[C@H]1C[C@H](O)[C@@H](CO)O1 [MeP-dR, 9-(β-D-2-deoxyerythropentofuranosyl)-6-methylpurine]
[1]; non-transduced 16/C and B16 cells
  Background activity in cell free extracts: 0
[1]; transduced 16/C cells, n=6
  E. coli PNP activity in cell free extracts: 10.7 nmoles MeP-dR converted/mg cell protein/hr
[1]; transduced B16 cells, n=2
  E. coli PNP activity in cell free extracts: 2.4 nmoles MeP-dR converted/mg cell protein/hour
[2]
  Toxicity of prodrug relative to its purine analog: much less toxic than their respective purine analogs
[3]
  Effect on growth of wild-type 16/C tumors: only a small effect on tumor growth
[4]
  Effect on Mel-1 cells: unaffected
[5]; [11]
  Complete Regressions/Total: 0/6
  Day delay (Treated-control): 2.4 days
  Nonspecific Deaths/Total: 0/6
[5]; wild type 16/C
  Delay in tumor growth, in words: no statistically significant delay in tumor growth
[6]
  Effect on very large pre-existing PNP transduced tumors (approximately 1 gram): impressive regression
[7]; [11]
  Complete Regressions/Total: three of six and 3/6
  Day delay (Treated-control): 5.4 days
  Nonspecific Deaths/Total: 2/6****
[7]; p<0.01
  Delay in time for three tumor doublings, in words: statistically significant delay
[8]; 67 mg/kg, regardless of tumor implanted
  Loss of weight in treated animals: little or no loss of weight
[8]; 45 or 67 mg/kg
  Effect on E. coli PNP expressing D54 tumors, in words: caused regression
[8]; Table IV, 67 mg/kg
  Days Delay (T-C): >39 days
  Doubling time: >56
  Nonspecific Deaths/Total: 0/6
  Regressions Partial: 0/6
[8]; Table IV, 67 mg/kg IP once a day for three days, 67 mg/kg
  Regressions Complete: 6 of 6 and 6/6
[8]; Table IV, 67 mg/kg, followed 65 days, 67 mg/kg
  Tumor-free Survival: Four and 4/6
[8]; Table V, 45 mg/kg
  Days Delay (T-C): >24 days
  Doubling time: >54
  Nonspecific Deaths/Total: 0/10
  Regressions Partial: 3 and 3/10
  Tumor-free Survival: no tumor-free survivors and 0/10
[8]; Table V, 45 mg/kg IP once a day for three days, 45 mg/kg
  Regressions Complete: 2 of 10 and 2/10
[8]; Table V, 67 mg/kg
  Days Delay (T-C): >25 days
  Doubling time: >55
  Nonspecific Deaths/Total: 1/10
  Regressions Partial: 1/10
[8]; Table V, 67 mg/kg IP once a day for three days, 67 mg/kg
  Regressions Complete: 8 of 10 and 8/10
[8]; Table V, 67 mg/kg, 60 days after treatment stopped, 67 mg/kg
  Tumor-free Survival: 4 of 10 and 4/10
[8]; previous studies
  Activity against D54 glioma tumors expressing the E. coli PNP gene: good activity
[8]; transduced tumors, 45 and 67 mg/kg
  Delay in the time required to double twice: greater than 24 days
[9]
  Percent of substrate cleaved by Human PNP, 100 μM: 0(86) Percent and 0%
  Percent of substrate cleaved by Human PNP, 1 mM: 0(47) Percent and 0%
  Substrate quality for mammalian (human) PNP: poor substrates
[10]
  Percent of substrate cleaved by E. coli PNP, 100 μM: 91(86)45(21) Percent and 93(87)29(24) Percent
  Percent of substrate cleaved by E. coli PNP, 1 mM: 91(86)45(21) Percent and 93(87)29(24) Percent
  Substrate quality for bacterial (E. coli) PNP: good substrates
